Experimental data published in the NIST ThermoML archive (doi:10.1016/j.jct.2017.07.004).

How the values were obtained:
[1] = xn = mol fraction of the nth substance listed; details: 100 kPa, Liquid, x2 = 0; for viscosity: Concentric cylinders viscometry; for mass density: Vibrating tube method
[2] = 100 kPa, Liquid; for viscosity: Concentric cylinders viscometry; for mass density: Vibrating tube method

CCC(C)O (configuration not stated) [butan-2-ol] + CCC=O
[1]
Details | mass density [kg/m3] | viscosity [mPa·s]
293.15 K | 806.7 | 3.67
298.15 K | 802.7 | 3.04
303.15 K | 798.4 | 2.54
308.15 K | 794.1 | 2.13
313.15 K | 789.8 | 1.8
318.15 K | 785.2 | 1.54
323.15 K | 780.6 | 1.33

CC(C)O [propan-2-ol] + CCC=O
[1]
Details | mass density [kg/m3] | viscosity [mPa·s]
293.15 K | 785.4 | 2.42
298.15 K | 781.1 | 2.08
303.15 K | 776.8 | 1.8
308.15 K | 772.4 | 1.56
313.15 K | 768 | 1.36
318.15 K | 763.4 | 1.19
323.15 K | 758.8 | 1.05

CCC=O [propanal]
[2]
Details | mass density [kg/m3] | viscosity [mPa·s]
293.15 K | 802.4 | 0.34
298.15 K | 796.2 | 0.33
303.15 K | 790.3 | 0.31
308.15 K | 784.5 | 0.3
313.15 K | 779 | 0.28
318.15 K | 773.5 | 0.27
323.15 K | 768.2 | 0.25

CCCC(C)O (configuration not stated) [pentan-2-ol] + CCC=O
[1]
Details | mass density [kg/m3] | viscosity [mPa·s]
293.15 K | 809.3 | 3.97
298.15 K | 805.3 | 3.32
303.15 K | 801.2 | 2.81
308.15 K | 797 | 2.37
313.15 K | 792.7 | 1.99
318.15 K | 788.4 | 1.66
323.15 K | 784 | 1.39

CCCC(C)O (configuration not stated) [pentan-2-ol]
[2]
Details | viscosity [mPa·s]
298.15 K | 3.32
303.15 K | 2.81
308.15 K | 2.37
313.15 K | 1.99
318.15 K | 1.66
323.15 K | 1.39
